Experiments:
[1] = test system: stretched attend postures, BalbC/HSD mice; assay: Canopy test for anxiety: stretched attend postures (SAPs); format: in vivo, mouse; conditions: for % Reduction SAPs: i.v., mouse
From the text: The purpose of the Canopy test is to investigate the potential of compounds of Formula I as effective treatments for anxiety by examining an integral component of the risk assessment repertoire of defensive behaviors, the stretched attend posture (SAPs). […] This behavior is investigatory, and is considered an important behavioral indicator of anxiety in mice (Grewal et al., 1997). In brief, mice are placed on an elevated circular platform with a covered space in the middle, and an open space surrounding the covered zone. The number of SAPs the animals makes when exploring this environment are measured.
Subjects: Male BalbC/HSD mice (Harlan Sprague Dawley) weighing approximately 20-25 g at the beginning of the experiment, were used. Animals were group housed 4-5 per cage, in standard shoebox cages and maintained on a 12:12 h light-dark cycle (lights on at 0600). All animals were allowed food and water ad libitum throughout the procedure.
Apparatus: The test apparatus is comprised of a black plexiglas circular platform (70 cm diameter) elevated 60 cm above the floor. A clear red plexiglas (translucent) ‘canopy’ (38 cm diameter) is supported 4 cm directly above the platform by a central pillar, effectively dividing the platform into an inner, covered zone (beneath the canopy) and an outer, exposed zone. The apparatus is illuminated by normal room lighting.
Procedure: On test days mice are transported in their home cage to the testing room which is free of noise/distraction and the mice are injected with the compound of choice, prior to testing. For the KCNQ compounds, when administered IV, pretreatment time is 15 minutes. For oral administration, pretreatment time is 1 hour. Following the pretreatment, the animal is placed in the covered zone of the platform, always oriented in the same direction, facing the pillar. For 5 minutes the animals are allowed to freely explore the apparatus. The dependent variable is the number of Stretched Attend Postures, which are scored by an observer blind to treatment condition. Data were analyzed by an overall analysis of variance followed by Dunnett's post hoc tests. An effect was considered significant if p<0.05.
All test compounds are administered in a volume of 10 ml/kg. Vehicle and buspirone (as the positive control) treated mice were run with each experiment, and buspirone was dissolved in the same vehicle as used per each compound. Compounds of Formula I were administered IV, in a vehicle containing 10% PEG400/5% Tween/85% water, warmed on a hot plate.

[2] = test system: nerve injury-induced tactile allodynia (L5/L6 ligation), Sprague Dawley rats; assay: Chung model of neuropathic pain (Chung surgery and von Frey test); format: in vivo, rat; conditions: i.v., von Frey thresholds over 90 min
Protocol: To test agents for activity against peripheral mononeuropathy nerve injury-induced tactile allodynia, male Sprague Dawley rats (wt. 120-160 g) were surgically prepared with unilateral tight ligation of spinal nerves L5 and L6 following the method of Kim and Chung (Kim S. H., Chung J. M. (1992) Pain, September;50(3):355-63). After 3-4 weeks recovery, paw withdrawal to light touch was assessed as described by Chaplan et al. (Chaplan S. R., et al., (1994) J. Neurosci Methods, July;53(1):55-63). In brief, rats are placed in a plastic cage with a wire mesh bottom and allowed to acclimate for 15-30 minutes, until cage exploration and grooming stops. The plantar surface of each hind paw is touched with a series of von Frey hairs with varying stiffness requiring a known force to buckle to determine the nociceptive threshold. Adult male Sprague Dawley rats (avg. wt. 340 g) were tested in the present study. After acclimation, baseline von Frey thresholds were assessed for the injured hindpaw at −15 min. All test compounds were delivered at 0 min by the intravenous (i.v.) route in a volume of 0.5-2 ml/kg. The vehicle for test compounds was 100% PEG-400. For gabapentin the vehicle was deionized H2O. Animals were tested in one of the following 4 treatment conditions: (a) PEG400, (b) gabapentin (Neurontin) 100 mg/kg, (c) test compounds 3 mg/kg and (d) test compounds 10 mg/kg. Following drug administration, von Frey thresholds are measured at 15, 30, 60 and 90 min. Data were analyzed by a 2-way repeated measures analysis of variance followed by Dunnett's test (p<0.05). Experimenters were kept blind to the treatment condition of rats they tested.
Reversal of neuropathic pain behavior may be expressed as a percentage (0-100%) of the maximum possible effect, over and above the vehicle effects. Specifically, drug effects can be described in terms Δ% MPE according to the following equation: [formula]
AUCdrug=area under the curve for von Frey thresholds of the drug-treated group;
AUCvehicle=area under the curve for von Frey thresholds in the vehicle group;
Time=duration of post-drug testing period (90 min); and
Max=maximum von Frey threshold (15 g).
For example, a compound which immediately reversed neuropathic pain behavior to normal levels, such that animals only responded to the highest von Frey filament (15 g), and maintained normal levels through out the post-drug testing period (90 min) would be calculated as Δ% MPE=100%.

[3] = test system: cortical spreading depression (KCl application), Long-Evans rats; assay: In vivo electrophysiology: number of cortical spreading depressions produced by KCl application; conditions: 1 mg/kg, i.v., 15 min prior to KCl; rat
From the text: Male Long-Evans rats (300-450 g) were used in the present studies (Harlan). Rats were anesthetized with urethane anesthesia (1.2 g/kg i.p.) and placed in a stereotaxic frame. Under anesthesia a Silastic catheter was placed in the jugular vein of the rats. The skull was exposed using a scalpel. A small hole (approximately 2 mm by 3 mm) was drilled in to the skull rostral to the lambdoid suture using a microdrill and steel burr. The dura was disrupted and a drop of mineral oil was placed in this hole to prevent dehydration of the underlying cortex. Ultimately this hole was used for the application of crystalline KCl (described below).
Two additional holes were place in the skull unilaterally at 4 and 8 mm rostral to the application hole. Silver wire electrodes were placed in these latter holes and secured to the skull using acrylic cement. A similar silver wire electrode was sutured to the nuchal muscle to serve as a reference electrode. Electrical DC recordings were obtained using a standard differential amplifier (Warner, DP-304) and commercially available data acquisition equipment (Cambridge Electronic Design, 1401 A-D converter and Spike2 software).
All experimental procedures were conducted while the rats were maintained under anesthesia. Rats were injected with test compound, valproic acid or vehicle (100% PEG-400) 15 min prior to the application of crystalline KCl to the application site described above. All injections were given via the jugular vein at a volume of ≦0.5 ml/kg. Only one treatment was tested per animal. The effect of valproic acid was also determined in this study due to the fact that Depakote™ (divalproex sodium) is one of only three drugs currently indicated for the prophylatic treatment of migraine headache. Valproic acid (30-200 mg/kg i.v.) was obtained from Sigma Chemical Company and was dissolved in a vehicle of isotonic saline.
KCl was applied to the application site for 10 min and was then removed using a saline soaked cotton swab. Mineral oil was subsequently reapplied to the application site. Typically, this application produced a long-lasting series of spreading depressions. The number of spreading depressions produced by this KCl application was the primary measure used to access the effectiveness of compounds in this assay.
Data were analyzed using analyses of variance followed by the Dunnett post-hoc test for pairwise comparisons, when appropriate. A difference was considered significant when p≦0.05.
The effect of representative compounds of Formula I on spreading depression is expressed as the percent reduction from vehicle control and is listed in Table 3.

SMILES	% Reduction SAPs ([1]; 1.25 mg/kg)	AUC (Δ% MPE) ([2]; 3 mg/kg)	% Reduction (number of spreading depressions, from vehicle control) [3]	% Reduction SAPs ([1]; 30 mg/kg)	Stretched attend postures, percent of vehicle control ([1]; separate experiments with a vehicle control, dose not given)	AUC (Δ% MPE) ([2]; 10 mg/kg)	% Reduction SAPs ([1]; 10 mg/kg)
C[C@H](NC(=O)/C=C/c1ccc(F)cc1)c1ccc2ccccc2c1 [Example 1, (S)-3-(4-Fluoro-phenyl)-N-(1-naphthalen-2-yl-ethyl)acrylamide]	44 (1.25 mg/kg, iv.) %	8 (3 mg/kg, i.v.) Δ% MPE	25 (1 mg/kg, i.v.) %	–	–	–	–
C[C@H](NC(=O)/C=C/c1ccccc1)c1cccc(N2CCOCC2)c1 [Example 82, (S)-3-Phenyl-N-[1-(3-morpholin-4-yl-phenyl)ethyl]acrylamide]	–	–	27 (1 mg/kg, i.v.) %	28 (30 mg/kg, i.v.) %	75 % of vehicle control	25 (10 mg/kg, i.v.) Δ% MPE	–
C[C@H](NC(=O)/C=C/c1ccc(F)cc1)c1ccc(F)c(N2CCOCC2)c1 [Example 169, (S)-N-[1-(4-Fluoro-3-morpholin-4-yl-phenyl)-ethyl]-3-(4-fluoro-phenyl)-acrylamide]	–	–	25 (1 mg/kg, i.v.) %	–	–	31 (10 mg/kg,i.v.) Δ% MPE	18 (10 mg/kg, i.v.) %

From patent publication US6831080B2, “Cinnamide derivatives as KCNQ potassium channel modulators” (Bristol-Myers Squibb Company, priority 2001, dated 2004)
